Source: patent US8202910B2 (Sequella, Inc., priority 2006, dated 2012)
Values after ≈ are worked out from the molar mass of the structure shown. Like-named read-outs stand apart in the source and are kept apart here.

Experiments:
in vivo = assay: in vivo; design: species or system mice; settings: mouse
Procedure: Initially, analytical methods for determination of the compounds had been developed that allowed to carry out all the PK experiments, sec FIG. 29. Here is a brief description of the experiment: (1) plasma spiked with tested compounds and 10 uL of Terfenadine or plasma samples (200 uL) added; (2) ACN (2 mL) added to precipitate protein and spin at 2,500 rpm; (3) evaporate supernatant to dryness; (4) add 200 uL of the diluting solvent: methanol (with 0.1% of trifluoroacetic acid): ammonium acetate (80/20); (5) vortex, spin, and use supernatant; (6) run LC/MS/MS on Sciex API 3000.
Pilot PK study of the compounds 37, 59, and 109 in mice was conducted using a cassette dosing: all the three analogs were formulated together in saline at 1.5 mg/mL, and administered to mice simultaneously orally at 25 mg/kg, peritoneally at 6 mg/kg, and intravenously. […] Obtained data are presented on FIGS. 30, 31, and 32 (tested compounds were studied under the NCI′ indexation NSC) and summarized in Table 19.

[1] = Toxicity, dose escalation study in mice; settings: C57BL/6, mouse, in vivo
Procedure: Toxicity was assessed using a dose escalation study. This study was performed with ten C57BL/6 mice per candidate. Every two days, the mice were administered an increased concentration of the drug, and monitored for detrimental effects. The administration scheme was 50, 100, 200, 400, 600, 800 and 1000 mg/kg.

[2] = test system: RIF^R M. tuberculosis strain 3185; assay type: cell-based
[3] = test system: opiate receptor (non-selective opiate); assay: CEREP receptor binding, opiate; settings: tested at 10 μM
Description: (§1) In vitro testing for safety pharmacology and early ADMET (Absorption, Distribution, Metabolism, Excretion, Toxicity) studies of compound 109 were contracted out to CEREP (15318 NE 95th Street, Redmond, Wash., 98052, USA www.cerep.com) under a service agreement and included evaluation of inhibitory binding to a panel of 27 standard receptors and three transporters (See FIG. 60 (Table 31) and FIG. 61 (Table 32)) which included: adenosine receptors (A1 and A2A), adrenergic receptors (alpha 1, alpha 2, beta 1), angiotensin II receptor (AT1), benzodiazapene receptor (BZD), bradykinin receptor (B2), cholecystokinin receptor (CCK1), dopamine receptors (D1, D2S), endothelin receptor (ETA), GABA receptor (GABA), glutamate receptor (NMDA), histamine receptor (H1 central), melanocortin receptor (MC4), muscarinic receptor (M, non-selective), neurokinin receptor (NK1), neuropeptide Y receptor (Y), nicotinic receptor (neuronal, alpha-BGTX-insensitive), opiate receptor (non-selective opiate), orphanin receptor (ORL1), phencyclidine receptor (PCP), serotonin receptor (5-HT), sigma receptor (sigma non-selective), steroid receptor (glucocorticoid receptor, GR), and NE, DA, and 5-HT transporters.
(§2) The specific ligand binding to the receptors is defined as the difference between the total binding and the nonspecific binding determined in the presence of an excess of unlabelled ligand.

Dopamine DA transporter = biological target: T1, Dopamine DA transporter (Homo sapiens, UniProt Q01959); assay: CEREP transporter binding, DA; settings: tested at 10 μM; read-out: inhibition of control specific binding
T1 construct: CEREP (contract testing)
Description: as §1, §2

[4] = biological target: T2, Serotonin 5-HT transporter (Homo sapiens, UniProt P31645); assay: CEREP transporter binding, 5-HT; settings: tested at 10 μM; read-out: inhibition of control specific binding
T2 construct: CEREP (contract testing)
Description: as §1, §2

[5] = test system: RIF^R M. tuberculosis strain 2482; assay type: cell-based
[6] = biological target: T3, melanocortin MC4 receptor (Homo sapiens, UniProt P32245); assay: CEREP receptor binding, MC4; settings: tested at 10 μM; read-out: inhibition of control specific binding
T3 construct: CEREP (contract testing)
Description: as §1, §2

in vitro = in vitro ADME; settings: plasma
Streptococcus pneumoniae = assay: Spectrum of activity MIC (NCCLS); assay type: cell-based
Procedure: (§3) Compound 109 was tested against a representative panel of commonly encountered clinical microorganisms comprising opportunistic pathogens, target pathogens and normal human flora. The spectrum of activity of compound 109 was evaluated by performing antimicrobial susceptibility testing against a collection of aerobic and anaerobic bacteria, fungi, and mycobacteria. MICs for all organisms were established using the appropriate NCCLS (National Committee for Clinical Laboratory Standards) recommended standard methods and quality control strains.

enterococci = assay: Spectrum of activity MIC (NCCLS); assay type: cell-based; settings: all species of enterococci tested
Procedure: as §3

Staphylococci = assay: Spectrum of activity MIC (NCCLS); assay type: cell-based; settings: all Staphylococci tested
Procedure: as §3

Helicobacter pylori = assay: Spectrum of activity MIC (NCCLS); assay type: cell-based; settings: all three strains tested
Procedure: as §3

Haemophilus influenzae = assay: Spectrum of activity MIC (NCCLS); assay type: cell-based; settings: three isolates
Procedure: as §3

human CYP2C19 = human CYP2C19 (Homo sapiens, UniProt P33261); assay: Metabolism by CYP2C19; assay type: in vitro ADME
Description: Two of the groups contained oxidized metabolites. […] Based on the finding that SQ109 was metabolized rapidly by CYP, it is possible that its antimycobacterial activity may come from one of its metabolites. It is conceivable that SQ109 is a prodrug and requires activation by mycobacterial CYP. We speculate that when SQ109 is used in combination with rifampicin, the latter induces certain CYP activity within the Mycobacteria. Elevated CYP activity activates the SQ109 prodrug more efficiently, resulting in an apparent synergistic activity of the two drugs.

T1 sequence (Q01959 whole entry): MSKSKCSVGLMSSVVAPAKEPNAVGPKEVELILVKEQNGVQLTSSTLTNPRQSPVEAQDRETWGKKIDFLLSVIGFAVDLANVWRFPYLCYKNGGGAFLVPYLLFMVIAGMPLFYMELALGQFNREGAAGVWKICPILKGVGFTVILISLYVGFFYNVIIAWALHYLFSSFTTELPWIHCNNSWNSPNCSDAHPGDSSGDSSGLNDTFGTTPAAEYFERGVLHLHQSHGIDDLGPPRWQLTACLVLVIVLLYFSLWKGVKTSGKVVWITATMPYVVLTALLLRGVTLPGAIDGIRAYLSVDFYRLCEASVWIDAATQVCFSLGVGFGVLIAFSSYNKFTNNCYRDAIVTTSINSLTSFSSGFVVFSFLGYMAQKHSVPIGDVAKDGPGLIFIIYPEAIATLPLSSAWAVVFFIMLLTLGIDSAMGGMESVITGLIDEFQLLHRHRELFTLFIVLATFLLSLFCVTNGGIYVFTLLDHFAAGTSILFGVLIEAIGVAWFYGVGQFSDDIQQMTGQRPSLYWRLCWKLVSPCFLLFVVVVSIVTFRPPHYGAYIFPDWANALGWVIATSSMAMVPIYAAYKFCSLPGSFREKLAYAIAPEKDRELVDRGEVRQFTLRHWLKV
T3 sequence (P32245 whole entry): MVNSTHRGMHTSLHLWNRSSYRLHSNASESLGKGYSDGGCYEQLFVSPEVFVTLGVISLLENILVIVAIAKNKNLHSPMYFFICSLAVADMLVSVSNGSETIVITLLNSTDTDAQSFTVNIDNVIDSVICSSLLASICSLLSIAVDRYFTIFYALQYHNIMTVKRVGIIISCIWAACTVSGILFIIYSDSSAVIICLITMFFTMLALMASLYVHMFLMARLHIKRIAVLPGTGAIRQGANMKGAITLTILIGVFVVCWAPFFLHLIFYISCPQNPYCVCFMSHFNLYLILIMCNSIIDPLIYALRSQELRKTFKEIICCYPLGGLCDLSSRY
T2 sequence (P31645 whole entry): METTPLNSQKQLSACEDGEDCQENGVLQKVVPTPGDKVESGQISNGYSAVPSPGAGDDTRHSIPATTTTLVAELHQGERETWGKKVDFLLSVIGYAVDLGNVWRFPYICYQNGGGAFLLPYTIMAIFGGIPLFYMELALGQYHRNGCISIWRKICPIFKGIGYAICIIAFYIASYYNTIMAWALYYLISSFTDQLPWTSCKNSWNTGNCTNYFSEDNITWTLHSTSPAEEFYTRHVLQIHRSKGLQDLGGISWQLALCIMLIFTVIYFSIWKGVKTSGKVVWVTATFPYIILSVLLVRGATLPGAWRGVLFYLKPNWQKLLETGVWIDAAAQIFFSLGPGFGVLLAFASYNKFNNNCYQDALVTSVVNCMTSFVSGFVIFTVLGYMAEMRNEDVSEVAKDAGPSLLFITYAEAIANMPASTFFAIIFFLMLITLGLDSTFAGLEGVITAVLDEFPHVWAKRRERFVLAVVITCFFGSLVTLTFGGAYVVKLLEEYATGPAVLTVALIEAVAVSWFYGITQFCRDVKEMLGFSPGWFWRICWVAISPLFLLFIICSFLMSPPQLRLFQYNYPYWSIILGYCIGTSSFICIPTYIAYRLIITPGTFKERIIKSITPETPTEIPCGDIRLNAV
Chain of human CYP2C19 (P33261 whole entry): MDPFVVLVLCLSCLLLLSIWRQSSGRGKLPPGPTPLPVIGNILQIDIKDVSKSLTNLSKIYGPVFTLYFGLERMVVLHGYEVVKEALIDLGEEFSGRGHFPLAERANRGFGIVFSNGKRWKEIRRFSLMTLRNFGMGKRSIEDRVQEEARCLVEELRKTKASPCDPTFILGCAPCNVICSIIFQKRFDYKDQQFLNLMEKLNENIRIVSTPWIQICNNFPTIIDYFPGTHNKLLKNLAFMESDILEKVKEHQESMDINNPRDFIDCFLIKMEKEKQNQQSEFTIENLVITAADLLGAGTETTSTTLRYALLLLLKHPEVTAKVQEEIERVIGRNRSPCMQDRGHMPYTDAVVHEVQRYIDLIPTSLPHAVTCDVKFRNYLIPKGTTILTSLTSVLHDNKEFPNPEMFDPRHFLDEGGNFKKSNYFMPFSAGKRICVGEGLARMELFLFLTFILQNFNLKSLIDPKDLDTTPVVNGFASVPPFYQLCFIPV

Structure (SMILES): CC(C)=CCC/C(C)=C/CNCCNC1C2CC3CC(C2)CC1C3 (stereo not shown) [Compound 109, N-Geranyl-N′-(2-adamanthyl)ethane-1,2-diamine]
- AUC (in vivo; ip, 6 mg/kg): 1100 ng·h/mL
- Cmax (in vivo; ip, 6 mg/kg): 935 ng/mL
- Urine excretion (%) (in vivo; ip, 6 mg/kg): <0.01%
- bioavailability (in vivo; ip, 6 mg/kg): 55%
- half-life (in vivo; ip, 6 mg/kg): 4.4 h
- AUC (in vivo; iv, 3 mg/kg): 1010 ng·h/mL
- Cmax (in vivo; iv, 3 mg/kg): 1190 ng/mL
- Urine excretion (%) (in vivo; iv, 3 mg/kg): .92%
- clearance (in vivo; iv, 3 mg/kg): 54 mL/min/kg
- half-life (in vivo; iv, 3 mg/kg): 5.5 h
- AUC (in vivo; po, 25 mg/kg): 655 ng·h/mL
- Cmax (in vivo; po, 25 mg/kg): 227 ng/mL
- bioavailability (in vivo; po, 25 mg/kg): 2.7%
- tolerated dose [1]: 800 mg/kg
- growth inhibition [2]: greater than 99%
- x/y quotient ([2]; 0.5 MIC SQ109 + rifampicin 4 mg/L): 0.64
- x/y quotient ([2]; 0.5 MIC SQ109 + rifampicin 8 mg/L): 0.48
- x/y quotient ([2]; 0.5 MIC SQ109 + rifampicin 12 mg/L): 0.40
- x/y quotient ([2]; 0.5 MIC SQ109 + rifampicin 16 mg/L): 0.35
- inhibition of control specific binding [3]: 58%
- inhibition at 10 µM (Dopamine DA transporter): 63%
- inhibition at 10 µM [4]: 95%
- x/y quotient ([5]; 0.25 MIC SQ109 (0.08 mg/L) + 10 mg/L rifampicin): 0.66
- x/y quotient ([5]; 0.5 MIC SQ109 + rifampicin 25 mg/L): 0.497
- x/y quotient ([5]; 0.5 MIC SQ109 + rifampicin 50 mg/L): 0.39
- x/y quotient ([5]; 0.5 MIC SQ109 + rifampicin 100 mg/L): 0.33
- growth inhibition ([5]; 0.5 MIC SQ109 added to 100 mg/L rifampicin): more than 99%
- inhibition at 10 µM [6]: 90%
- fraction unbound at 20 ng/ml (in vitro): 0.85
- fraction unbound at 200 ng/ml (in vitro): 0.26
- fraction unbound at 2000 ng/ml (in vitro): 0.52
- MIC (Streptococcus pneumoniae): 4 to 8 µg/mL (≈ 12.1 to 24.2 µM)
- MIC (enterococci): 16 to 64 µg/mL (≈ 48.4 to 194 µM)
- MIC (Staphylococci): 16 to 32 µg/mL (≈ 48.4 to 96.8 µM)
- MIC (Helicobacter pylori): 4 µg/mL (≈ 12.1 µM)
- MIC (Haemophilus influenzae): 1 to 32 µg/mL (≈ 3.03 to 96.8 µM)
- metabolism by CYP (human CYP2C19): metabolized
